This is an account of results in patent US10245238B2, “Composition for oral intake” (THERAVALUES CORPORATION, priority 2014, dated 2019).

The nature of this data set: Oral absorbability of various complexes: curcumin concentration in blood plasma after forced oral administration. Format: in vivo. The conditions noted are these: SD rats, curcumin dose 10 mg/kg. As for the experimental part: (Oral Absorbability of Various Complexes)
For the test animal, 6-week old SD rats (male, body weight: 170 g to 260 g, Charles River Laboratories Japan, Inc.) were used.
In regard to the administration method, the various complexes (Examples 1 to 13) produced as described above were each added to water for injection in a predetermined amount, subsequently the mixture was made up to 20 mL so as to obtain a curcumin concentration of 1 mg/mL, the mixture was mixed using an ultrasonic generator, and the mixture was forcibly orally administered to test animals (n 3 or 5) that had been fasted for 12 hours or longer before administration, using a feeding needle, such that the curcumin dose would be 10 mg/kg (Administration Test Examples 1 to 13) or 50 mg/kg (Administration Test Example 14).
Meanwhile, the cases of administering curcumin base powder (Comparative Test Example 1); physical mixture obtained by simply physically mixing curcumin base powder and hydroxypropylmethyl cellulose powder or hydroxypropyl cellulose powder (curcumin:HPMC=1:3 or curcumin HPC=1:3) (Comparative Test Examples 2 and 3); or CR-031P powder (manufactured by Theravalues Corp.), which is a turmeric dye composition obtained by combining micronized curcuminoid with gum ghatti (Comparative Test Examples 4 and 5) was designated as controls.
For the measurement of the concentration of curcumin and/or an analog thereof in blood plasma, measurement was made by the following method, using heparinized blood plasma obtained by collecting about 0.5 mL of blood from the jugular vein of the test animals without anesthesia, after 30 minutes, 1 hour, and 2 hours from the initiation of administration.
100 μL of 0.1 M acetate buffer solution (pH 5.0) and 10 μL of β-glucuronidase solution (about 68,000 units/mL) were added to 20 μL of the collected blood plasma, and the mixture was maintained for 1 hour at 37° C. Subsequently, 10 μL of 50% (v/v) methanol including 20 ng/mL of mepronil, which was an internal standard liquid, and 0.5 mL of chloroform were added thereto, the mixture was stirred for 1 minute using a vortex mixer, and then the mixture was mixed for 15 minutes using an ultrasonic generator. An extraction-treated liquid thus prepared was separated into chloroform layer and an aqueous layer by centrifugation (13,000×g, for 5 minutes, at room temperature). This extraction treatment was repeated two times. Subsequently, the chloroform layer was collected, and the solvent was distilled off from this layer using a vacuum centrifugal concentrator to solid-dry the chloroform layer. 100 μL of 50% (v/v) methanol was added thereto, and then the mixture was centrifuged (13,000×g, for 5 minutes, at room temperature) to collect the supernatant.
2 μL of the supernatant produced as described above was subjected to an analysis using LC-MS/MS (manufactured by Shimadzu Corp.), and thereby the curcumin concentration in the blood plasma was measured. The conditions for the LC-MS/MS analysis were set such that the LC column was ATLANTIS T3 (2.1×150 mm, 3 μm, manufactured by Waters Corp.), the column temperature was 40° C., the flow rate was 0.2 mL/min, and the mobile phase included A: 0.1% aqueous solution of formic acid, and B: 0.1% formic acid/acetonitrile, and gradient elution was performed under the following conditions. […]

The molecule `COc1cc(/C=C/C(=O)/C=C(O)/C=C/c2ccc(O)c(OC)c2)ccc1O` [Curcumin base powder, curcumin] returned an AUC (0 to 2 h) of 33.9 ng/mL · 0-2 h. Also, where the note is “male, rat, plasma”, the concentration peaked (Cmax) at 49.8 ng/mL. Further, the concentration at 0.5 h (male, rat, plasma, 0.5 h after administration) was 7.8 ng/mL. Also, the concentration at 1 h (male, rat, plasma, 1 h after administration) is 17.2 ng/mL. The molecule also displayed a concentration at 2 h (male, rat, plasma, 2 h after administration) of 34.2 ng/mL.

The Cmax is the highest concentration seen after dosing.
